According to the supplement of paper PMC7224384:

Assays:
MDA-MB-453 [1] = test: drug sensitivity score (DSS), single agent (DSS (weighted AUC score)); higher = more sensitive (stronger viability decrease); extreme values may be limits of the assay; conditions: BLU9931 0 nM; 72 h
Procedure, shortened: (§1)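 Cells of the MDA-MB-453 line (2000 per well) were added in medium, with or without 100 nM final FGFR4 inhibitor, to 384-well plates predispensed with FIMM Oncology set compounds at five 10-fold dilutions covering a 10,000-fold range. After 72 h at 37 °C, 5% CO2, CellTiterGlo 2.0 read cellular ATP. Percent viability came from per-plate normalisation to control wells, and the drug sensitivity score was defined as a weighted area under a four-parameter logistic fit.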

MDA-MB-453 [2] = test: drug sensitivity score (DSS), in combination with BLU9931 (DSS (weighted AUC score)); higher = more sensitive (stronger viability decrease); extreme values may be limits of the assay; conditions: BLU9931 100 nM; 72 h
Procedure, shortened: as §1

Row | Structure (SMILES) | drug sensitivity score (MDA-MB-453 [1]) | drug sensitivity score (MDA-MB-453 [2])
1 | COc1cc2c(Oc3ccc(NC(=O)C4(C(=O)Nc5ccc(F)cc5)CC4)cc3F)ccnc2cc1OCCCN1CCOCC1 [Foretinib] | 1.1 | 1.2
2 | COc1cc(Nc2ncc(F)c(Nc3ccc4c(n3)N(COP(=O)(O)O)C(=O)C(C)(C)O4)n2)cc(OC)c1OC [Fostamatinib] | 0.1 | 0
3 | C[C@]12CC[C@@H]3c4ccc(O)cc4C[C@@H](CCCCCCCCC[S+]([O-])CCCC(F)(F)C(F)(F)F)[C@H]3[C@@H]1CC[C@@H]2O (some centres not stated) [Fulvestrant] | 0 | 0
4 | CC1(C)OCCn2c1nc1c(N3CCOCC3)nc(-c3cnc(N)nc3)nc12 [GDC-0084] | 16.4 | 17.4
5 | O=C(NOCCO)c1ccc2cncn2c1Nc1ccc(I)cc1F [GDC-0623] | 0.4 | 0.5
6 | C[C@H]1CN(C2COC2)CCN1c1ccc(Nc2cc(-c3ccnc(N4CCn5c(cc6c5CC(C)(C)C6)C4=O)c3CO)cn(C)c2=O)nc1 [GDC-0853] | 0 | 0
7 | O[C@H](C[C@H]1c2c(F)cccc2-c2cncn21)[C@H]1CC[C@H](O)CC1 [GDC-0919] | 0 | 0
8 | CNc1nc(Nc2cn(C(C)(C)C#N)nc2C)ncc1C(F)(F)F [GNE-0877] | 0 | 0
9 | CCNc1nc(Nc2cc(F)c(C(=O)N3CCOCC3)cc2OC)ncc1C(F)(F)F [GNE-7915] | 0 | 0
10 | CCCc1cc(C)[nH]c(=O)c1CNC(=O)c1cc(-c2ccnc(N3CCN(C)CC3)c2)cc2c1cnn2C(C)C [GSK343] | 0 | 0
11 | CCCOc1ccn2c(C(C)=O)cc(-c3ccccc3S(C)(=O)=O)c2c1 [GSK2801] | 0 | 0
12 | CCOC(=O)CCNc1cc(N2CCc3ccccc3CC2)nc(-c2ccccn2)n1 [GSK-J4] | 13.2 | 14
13 | C[C@@H]1C=C2C(=O)O[C@@H]3CC[C@H](C1)[C@]23O [Galiellalactone] | 7.4 | 7.7
14 | Cc1cccc(-c2nn3c(c2-c2ccnc4ccc(C(N)=O)cc24)CCC3)n1 [Galunisertib] | 0 | 0
15 | Cc1cc(Nc2cc(CN3CCOCC3)c3nc(C)c(Cc4ccc(Cl)cc4F)n3n2)n[nH]1 [Gandotinib] | 5 | 1.2
16 | CC(C)c1cc(-c2n[nH]c(=O)n2-c2ccc3c(ccn3C)c2)c(O)cc1O [Ganetespib] | 18.7 | 18.5
17 | CN(C)C1CCN(C(=O)c2ccc(NC(=O)Nc3ccc(-c4nc(N5CCOCC5)nc(N5CCOCC5)n4)cc3)cc2)CC1 [Gedatolisib] | 22.9 | 23.7
18 | COc1cc2ncnc(Nc3ccc(F)c(Cl)c3)c2cc1OCCCN1CCOCC1 [Gefitinib] | 6.9 | 8
19 | Nc1ccn([C@@H]2O[C@H](CO)[C@@H](O)C2(F)F)c(=O)n1 [Gemcitabine] | 6.9 | 6

Row | Structure (SMILES) | drug sensitivity score (MDA-MB-453 [1]) | drug sensitivity score (MDA-MB-453 [2])
20 | CCc1nc(C(N)=O)c(Nc2ccc(N3CCC(N4CCN(C)CC4)CC3)c(OC)c2)nc1NC1CCOCC1 [Gilteritinib] | 0 | 0
21 | CCN(CC)Cc1ccc2cc(COC(=O)Nc3ccc(C(=O)NO)cc3)ccc2c1 [Givinostat] | 11 | 10.3
22 | CN1CC[C@@H](NC(=O)Nc2ccc(C#N)cc2)C[C@@H]1c1nc2ccccc2[nH]1 [Glasdegib] | 0 | 0
23 | COCCNCc1ccc(-c2cc3nccc(Oc4ccc(NC(=S)NC(=O)Cc5ccc(F)cc5)cc4F)c3s2)nc1 [Glesatinib] | 0.7 | 0.5
24 | CN1CCN(C2CCN(C(=O)Nc3cc(Oc4ccc(NC(=O)C5(C(=O)Nc6ccc(F)cc6)CC5)c(F)c4)ccn3)CC2)CC1 [Golvatinib] | 0.3 | 0
25 | CC(C)C[C@H](NC(=O)[C@@H](COC(C)(C)C)NC(=O)[C@H](Cc1ccc(O)cc1)NC(=O)[C@H](CO)NC(=O)[C@H](Cc1c[nH]c2ccccc12)NC(=O)[C@H](Cc1cnc[nH]1)NC(=O)[C@@H]1CCC(=O)N1)C(=O)N[C@@H](CCCNC(=N)N)C(=O)N1CCC[C@H]1C(=O)NNC(N)=O [Goserelin] | 0 | 0
26 | O=S(=O)(c1cccc2c(O)nccc12)N1CCCNCC1 [Hydroxyfasudil] | 0 | 0.2
27 | NC(=O)NO [Hydroxyurea] | 2.3 | 1.6
28 | COc1cc2c(cc1-c1c(C)noc1C)ncc1[nH]c(=O)n([C@H](C)c3ccccn3)c12 [I-BET151] | 11.5 | 11.4
29 | O=C(O)c1ccc(O)c2ncccc12 [IOX-1] | 1.6 | 3.6
30 | O=C(O)CNC(=O)c1c(O)c2ccccc2n(Cc2ccccc2)c1=O [IOX-2] | 0 | 0
31 | C=CC(=O)N1CCC[C@@H](n2nc(-c3ccc(Oc4ccccc4)cc3)c3c(N)ncnc32)C1 [Ibrutinib] | 14.5 | 15.8
32 | C#Cc1cccc(Nc2ncnc3cc4c(cc23)OCCOCCOCCO4)c1 [Icotinib] | 1.8 | 1.9
33 | CC(=O)[C@]1(O)Cc2c(O)c3c(c(O)c2[C@@H](O[C@H]2C[C@H](N)[C@H](O)[C@H](C)O2)C1)C(=O)c1ccccc1C3=O [Idarubicin] | 5.9 | 6.4
34 | COc1cc(C(=O)O)ccc1NC(=O)[C@@H]1N[C@@H](CC(C)(C)C)[C@](C#N)(c2ccc(Cl)cc2F)[C@H]1c1cccc(Cl)c1F [Idasanutlin] | 1.1 | 0
35 | CC[C@H](Nc1ncnc2[nH]cnc12)c1nc2cccc(F)c2c(=O)n1-c1ccccc1 [Idelalisib] | 1.7 | 2
36 | Cc1ccc(NC(=O)c2ccc(CN3CCN(C)CC3)cc2)cc1Nc1nccc(-c2cccnc2)n1 [Imatinib] | 0.9 | 0.1
37 | CC(C)Cn1cnc2c(N)nc3ccccc3c21 [Imiquimod] | 0 | 0
38 | O=C(Nc1ccncc1)C(=O)c1cn(Cc2ccc(Cl)cc2)c2ccccc12 [Indibulin] | 9.1 | 5.3

Row | Structure (SMILES) | drug sensitivity score (MDA-MB-453 [1]) | drug sensitivity score (MDA-MB-453 [2])
39 | CCN1CCN(c2ccc(Nc3cc(N(C)C(=O)Nc4c(Cl)c(OC)cc(OC)c4Cl)ncn3)cc2)CC1 [Infigratinib] | 0 | 0
40 | CC(C)NC[C@@H](C(=O)N1CCN(c2ncnc3c2[C@H](C)C[C@H]3O)CC1)c1ccc(Cl)cc1 [Ipatasertib] | 11 | 12
41 | CCC(C)n1ncn(-c2ccc(N3CCN(c4ccc(OCC5COC(Cn6cncn6)(c6ccc(Cl)cc6Cl)O5)cc4)CC3)cc2)c1=O (configuration not stated) [Itraconazole] | 2.9 | 1.5
42 | N#Cc1ccnc(N2C(=O)CC[C@H]2C(=O)N(c2cncc(F)c2)[C@H](C(=O)NC2CC(F)(F)C2)c2ccccc2Cl)c1 [Ivosidenib] | 0 | 0
43 | C/C(=C\c1csc(C)n1)[C@@H]1C[C@@H]2O[C@]2(C)CCC[C@H](C)[C@H](O)[C@@H](C)C(=O)C(C)(C)[C@@H](O)CC(=O)N1 [Ixabepilone] | 5.6 | 4.1
44 | CC(C)C[C@H](NC(=O)CNC(=O)c1cc(Cl)ccc1Cl)B(O)O [Ixazomib] | 9.4 | 7.4
45 | Nc1cc(COc2c(Cl)cc(C[C@H](N)C(=O)O)cc2Cl)c2oc(-c3ccccc3)nc2c1 [JPH203] | 3 | 1.4
46 | CC(C)NC(=O)COc1cccc(-c2nc(Nc3ccc4[nH]ncc4c3)c3ccccc3n2)c1 [KD025] | 5.6 | 6
47 | CS(=O)(=O)CCNCc1ccc(-c2ccc3ncnc(Nc4ccc(OCc5cccc(F)c5)c(Cl)c4)c3c2)o1 [Lapatinib] | 6.5 | 7
48 | O=C(Nc1cnn2ccc(N3CCC[C@@H]3c3cc(F)ccc3F)nc12)N1CC[C@H](O)C1 [Larotrectinib] | 0.4 | 0
49 | Oc1ccc2c(c1)CC[C@H](c1ccccc1)[C@@H]2c1ccc(OCCN2CCCC2)cc1 [Lasofoxifene] | 0.7 | 0.2
50 | Nc1cccc2c1CN(C1CCC(=O)NC1=O)C2=O (configuration not stated) [Lenalidomide] | 0 | 0
51 | COc1cc2nccc(Oc3ccc(NC(=O)NC4CC4)c(Cl)c3)c2cc1C(N)=O [Lenvatinib] | 3.9 | 0.9
52 | N#Cc1ccc(C(c2ccc(C#N)cc2)n2cncn2)cc1 [Letrozole] | 0 | 0
53 | Cc1ccc(F)c(NC(=O)Nc2ccc(-c3cccc4[nH]nc(N)c34)cc2)c1 [Linifanib] | 0 | 0
54 | C[C@]1(O)C[C@@H](c2nc(-c3ccc4ccc(-c5ccccc5)nc4c3)c3c(N)nccn32)C1 [Linsitinib] | 3.6 | 1
55 | CCNCCS(=O)(=O)NC[C@@]1(c2ccccc2)SC(NC(=O)C(C)(C)C)=NN1C(=O)C(C)(C)C [Litronesib] | 17.3 | 13
56 | Nc1nc(OCc2cc(Br)cs2)c2[nH]cnc2n1 [Lomeguatrib] | 0 | 0
